# In ChEMBL document CHEMBL5042513, “Discovery of 2H-chromone-4-one based sulfonamide derivatives as potent retinoic acid receptor-related orphan receptor γt inverse agonists” (Eur J Med Chem, 2022):
# Key:
# [1] = Lipophilicity, logD of the compound at pH 7.4; settings: buffer
# [2] = target: T1, Nuclear receptor ROR-gamma (Homo sapiens, UniProt P51449); test: Displacement of BODIPY from APC-labelled RORgammat LBD (unknown origin) incubated for 1 hrs by binding assay
# T1 sequence (P51449 whole entry): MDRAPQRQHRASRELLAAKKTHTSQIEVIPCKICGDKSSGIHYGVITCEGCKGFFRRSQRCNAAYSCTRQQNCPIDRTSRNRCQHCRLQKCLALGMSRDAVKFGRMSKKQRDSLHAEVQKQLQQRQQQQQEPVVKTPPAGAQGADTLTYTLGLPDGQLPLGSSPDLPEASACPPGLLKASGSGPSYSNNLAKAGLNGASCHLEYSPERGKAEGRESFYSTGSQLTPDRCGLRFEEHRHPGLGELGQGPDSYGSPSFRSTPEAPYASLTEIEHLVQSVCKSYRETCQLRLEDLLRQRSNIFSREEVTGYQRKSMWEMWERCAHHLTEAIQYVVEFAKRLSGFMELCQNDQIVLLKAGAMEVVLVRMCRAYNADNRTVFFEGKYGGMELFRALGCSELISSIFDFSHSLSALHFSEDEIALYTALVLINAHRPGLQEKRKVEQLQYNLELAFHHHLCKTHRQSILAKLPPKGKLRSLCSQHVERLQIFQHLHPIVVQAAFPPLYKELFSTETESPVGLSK
# [3] = target: T1, Nuclear receptor ROR-gamma
# Description: Inverse agonist activity at RORgammat (unknown origin) transfected in human Jurkat cells assessed as inhibition of RORgammat transcriptional activity incubated for 8 hrs by luciferase reporter gene assay
# [4] = Metabolic stability in human liver microsomes assessed as parent compound remaining level at 10 uM in presence of NADPH incubated for 60 mins by HPLC-MS/MS analysis
# in vitro [5] = settings: human, liver microsomes
# Description: Metabolic stability in human liver microsomes assessed as half life at 10 uM in presence of NADPH by HPLC-MS/MS analysis
# in vitro [6] = settings: human, liver microsomes; remark: listed apart in the source
# Description: Metabolic stability in human liver microsomes assessed as intrinsic clearance at 10 uM in presence of NADPH by HPLC-MS/MS analysis
# in vivo [7] = settings: mouse, iv, 0.3 mg/kg
# in vivo [8] = settings: mouse, po, 1 mg/kg
# in vivo [9] = settings: mouse, iv, 0.3 mg/kg; remark: listed apart in the source
# in vivo [10] = settings: mouse, po, 1 mg/kg; remark: listed apart in the source
# in vivo [11] = settings: mouse, iv, 0.3 mg/kg; remark: listed apart in the source
# in vivo [12] = settings: mouse, po, 1 mg/kg; remark: listed apart in the source
# in vivo [13] = settings: mouse, iv, 0.3 mg/kg; remark: listed apart in the source
# in vivo [14] = settings: mouse, iv, 0.3 mg/kg; remark: listed apart in the source
# in vivo [15] = settings: mouse, iv, 0.3 mg/kg; remark: listed apart in the source
# in vivo [16] = settings: mouse, po, 1 mg/kg; remark: listed apart in the source
# in vivo [17] = settings: mouse, iv, 0.3 mg/kg; remark: listed apart in the source
# in vivo [18] = settings: mouse, po, 1 mg/kg; remark: listed apart in the source
# in vivo [19] = settings: mouse, po, 1 mg/kg; remark: listed apart in the source
# Mus musculus [20] = species: Mus musculus; test: animal or person; settings: BALB/c, po, 312 h, read-out: INH
# Description: Protection against imiquimod-induced psoriasis model of BALB/c mouse assessed as inhibition of psoriasis clinical score at 10 mg/kg, po administered for 13 days
# Mus musculus [21] = species: Mus musculus; test: animal or person; settings: BALB/c, po, 312 h, read-out: INH; remark: listed apart in the source
# Description: Protection against imiquimod-induced psoriasis model of BALB/c mouse assessed as inhibition of psoriasis clinical score at 20 mg/kg, po administered for 13 days
compound,measurement,setting,value
CC(C)CN(c1ccc(C#N)cc1)S(=O)(=O)c1ccc2c(c1)C(=O)CC(C1CCOCC1)O2 (stereo unspecified),logD,[1],3.16
CCc1ccc(N(CC(C)C)S(=O)(=O)c2ccc3cc(OCC4CCOCC4)c(C(=O)O)cc3c2)cc1,IC50,[2],> 10 µM
same,logD,[1],1.77
same,IC50,[3],> 10 µM
CCc1ccc(N(CC(C)C)S(=O)(=O)c2ccc3cc(OCC4CCOCC4)c(CO)cc3c2)cc1,logD,[1],5.1
CCc1ccc(N(CC(C)C)S(=O)(=O)c2ccc3c(c2)C(=O)CC(C2CCN(S(C)(=O)=O)CC2)O3)cc1 (stereo unspecified),logD,[1],3.31
CCc1ccc(N(CC(C)C)S(=O)(=O)c2ccc3cc(OCC4CCOCC4)c(C(=O)OC)cc3c2)cc1,logD,[1],6.09
CC(C)CN(c1ccc(F)cc1)S(=O)(=O)c1ccc2c(c1)C(=O)CC(C1CCOCC1)O2 (stereo unspecified),"remaining at 1 h, 10 µM",[4],0.2%
same,logD,[1],3.48
same,half-life at 10 µM,in vitro [5],0.7 min
same,CLint scaled at 10 µM,in vitro [6],1760 mL/min/kg
CCc1ccc(N(CC(C)C)S(=O)(=O)c2ccc3c(c2)C(=O)CC(C2(C)CCOCC2)O3)cc1 (stereo unspecified),logD,[1],4.71
CCc1ccc(N(C2CCC2)S(=O)(=O)c2ccc3c(c2)C(=O)CC(C2CCOCC2)O3)cc1 (stereo unspecified),logD,[1],3.78
CC(C)CN(c1cccc(F)c1)S(=O)(=O)c1ccc2c(c1)C(=O)CC(C1CCOCC1)O2 (stereo unspecified),logD,[1],3.5
CCc1ccc(NS(=O)(=O)c2ccc3c(c2)C(=O)CC(C2CCOCC2)O3)cc1 (stereo unspecified),logD,[1],2.67
CCc1ccc(N(CC(C)C)S(=O)(=O)c2ccc3c(c2)C(=O)CC(C2CCN(C(=O)OC(C)(C)C)CC2)O3)cc1 (stereo unspecified),IC50,[2],> 10 µM
same,logD,[1],5.1
same,IC50,[3],> 10 µM
CC(C)CN(C1CCc2ccc(F)cc21)S(=O)(=O)c1ccc2c(c1)C(=O)CC(C1CCOCC1)O2 (stereo unspecified),logD,[1],4.03
CCc1ccc(N(CC(C)C)S(=O)(=O)c2ccc(OCC3CCOCC3)c3c2CCCC3=O)cc1,logD,[1],4.84
CCc1ccc(N(CC(C)C)S(=O)(=O)c2ccc3oc(C4CCOCC4)cc(=O)c3c2)cc1,logD,[1],4.5
Cc1nc(N2CCOCC2)ccc1N(CC(C)C)S(=O)(=O)c1ccc2c(c1)C(=O)CC(C1CCOCC1)O2 (stereo unspecified),"remaining at 1 h, 10 µM",[4],50.2%
same,logD,[1],3.04
same,half-life at 24 h,in vivo [7],56.4 min
same,half-life at 24 h,in vivo [8],88.2 min
same,Tmax at 24 h,in vivo [9],61.2 min
same,Tmax at 24 h,in vivo [10],95.4 min
same,Cmax at 24 h,in vivo [11],75 ng/mL
same,Cmax at 24 h,in vivo [12],82 ng/mL
same,Vd at 24 h,in vivo [13],1.62 L/kg
same,clearance at 24 h,in vivo [14],30.2 mL/min/kg
same,AUC(0-t) at 24 h,in vivo [15],135 ng·h/mL
same,AUC(0-t) at 24 h,in vivo [16],212 ng·h/mL
same,AUC(0-inf) at 24 h,in vivo [17],140 ng·h/mL
same,AUC(0-inf) at 24 h,in vivo [18],219 ng·h/mL
same,bioavailability at 24 h,in vivo [19],47%
same,half-life at 10 µM,in vitro [5],59 min
same,CLint scaled at 10 µM,in vitro [6],21.1 mL/min/kg
same,inhibition in vivo at 10 mg/kg,Mus musculus [20],54.5%
same,inhibition in vivo at 20 mg/kg,Mus musculus [21],77.7%
CCc1ccc(N(CC(F)(F)F)S(=O)(=O)c2ccc3c(c2)C(=O)CC(C2CCOCC2)O3)cc1 (stereo unspecified),logD,[1],3.97
CCc1ccc(N(C2COC2)S(=O)(=O)c2ccc3c(c2)C(=O)CC(C2CCOCC2)O3)cc1 (stereo unspecified),IC50,[2],> 10 µM
same,logD,[1],2.72
same,IC50,[3],> 10 µM
CC(C)CN(Cc1ccccc1C(F)(F)F)S(=O)(=O)c1ccc2c(c1)C(=O)CC(C1CCOCC1)O2 (stereo unspecified),logD,[1],4.32
CC(C)CN(c1ccc(F)cc1F)S(=O)(=O)c1ccc2c(c1)C(=O)CC(C1CCOCC1)O2 (stereo unspecified),logD,[1],3.62
CCc1ccc2c(c1)CC(C)CN2S(=O)(=O)c1ccc2c(c1)C(=O)CC(C1CCOCC1)O2 (stereo unspecified),IC50,[2],> 10 µM
same,logD,[1],3.77
same,IC50,[3],> 10 µM
CCc1ccc(N(CC(C)C)S(=O)(=O)c2ccc3c(c2)C(=O)CC(C(C)C2CCOCC2)O3)cc1 (stereo unspecified),logD,[1],4.93
CCc1ccc(N(CC(C)C)S(=O)(=O)c2ccc3cc(OCC4CCOCC4)c(C(=O)OCC4CCOCC4)cc3c2)cc1,logD,[1],6.34
CCc1ccc(N(CC(C)C)S(=O)(=O)c2ccc3c(c2)C(=O)N(C2CCOCC2)C3)cc1,logD,[1],3.64
CCc1ccc(N(CC(C)C)S(=O)(=O)c2ccc3c(c2)C(=O)CC(C2CCN(S(=O)(=O)C4CCCC4)CC2)O3)cc1 (stereo unspecified),logD,[1],4.75
Cc1ccc(NS(=O)(=O)c2ccc3c(c2)C(=O)CC(C2CCOCC2)O3)c(C)c1 (stereo unspecified),logD,[1],2.75
CCc1ccc(N(CC2CCC2)S(=O)(=O)c2ccc3c(c2)C(=O)CC(C2CCOCC2)O3)cc1 (stereo unspecified),logD,[1],4.1
O=C1CC(C2CCOCC2)Oc2ccc(S(=O)(=O)N3CCCC3c3ccccc3C(F)(F)F)cc21 (stereo unspecified),logD,[1],3.5
CC(C)CN(c1ccc(C(C)(C)C)cc1)S(=O)(=O)c1ccc2c(c1)C(=O)CC(C1CCOCC1)O2 (stereo unspecified),logD,[1],4.97
CCS(=O)(=O)c1ccc(CNS(=O)(=O)c2ccc3c(c2)C(=O)CC(C2CCOCC2)O3)nc1 (stereo unspecified),IC50,[2],> 10 µM
same,logD,[1],0.32
same,IC50,[3],> 10 µM
Cc1ccc(N(C2CCC2)S(=O)(=O)c2ccc3c(c2)C(=O)CC(C2CCOCC2)O3)c(C)c1 (stereo unspecified),"remaining at 1 h, 10 µM",[4],4.5%
same,logD,[1],3.86
same,half-life at 10 µM,in vitro [5],6.2 min
same,CLint scaled at 10 µM,in vitro [6],202 mL/min/kg
CC(C)CN(c1ccccc1F)S(=O)(=O)c1ccc2c(c1)C(=O)CC(C1CCOCC1)O2 (stereo unspecified),logD,[1],3.44
CCc1ccc(N(CC(C)C)S(=O)(=O)c2ccc3c(c2)C(=O)CC(C2CCNCC2)O3)cc1 (stereo unspecified),logD,[1],2.21
CCc1ccc(N(Cc2ccccc2)S(=O)(=O)c2ccc3c(c2)C(=O)CC(C2CCOCC2)O3)cc1 (stereo unspecified),logD,[1],4.84
CCc1ccc(N(CC2CC2)S(=O)(=O)c2ccc3c(c2)C(=O)CC(C2CCOCC2)O3)cc1 (stereo unspecified),"remaining at 1 h, 10 µM",[4],23%
same,logD,[1],3.77
same,half-life at 10 µM,in vitro [5],22.3 min
same,CLint scaled at 10 µM,in vitro [6],55.8 mL/min/kg
CC(C)CN(c1ccc(N(C)C)cc1)S(=O)(=O)c1ccc2c(c1)C(=O)CC(C1CCOCC1)O2 (stereo unspecified),"remaining at 1 h, 10 µM",[4],11.5%
same,logD,[1],3.6
same,half-life at 10 µM,in vitro [5],12.8 min
same,CLint scaled at 10 µM,in vitro [6],98.5 mL/min/kg
CCc1ccc(N(CC(C)C)S(=O)(=O)c2ccc3c(c2)C(=O)CC(CC2CCOCC2)O3)cc1 (stereo unspecified),logD,[1],4.53
CCc1ccc(N(CC(C)C)S(=O)(=O)c2ccc3c(c2)C(=O)CC(C2CCN(C(=O)C4CCCC4)CC2)O3)cc1 (stereo unspecified),logD,[1],5.13
CC(C)CN(c1cc2ccccc2s1)S(=O)(=O)c1ccc2c(c1)C(=O)CC(C1CCOCC1)O2 (stereo unspecified),logD,[1],4.01
CCc1ccc(N(CC(C)C)S(=O)(=O)c2ccc3c(c2)C(F)CC(C2CCOCC2)O3)cc1 (stereo unspecified),logD,[1],5.02
CCc1ccc(N(CC(C)C)S(=O)(=O)c2ccc(OCC3CCOCC3)c(CO)c2)cc1 [GSK2981278],"remaining at 1 h, 10 µM",[4],0.2%
same,CLint scaled at 10 µM,in vitro [6],1610 mL/min/kg
